Measured values taken from patent US20110112308A1 (NOVARTIS AG, priority 2006, published 2011).

Columns and labels:
Solid-state stability = assay type: physicochemical; settings: for Bulk stability (XRPD): 1 week
Experimental: (§1) All samples were prepared/diluted to a concentration of 0.2 mg/mL in methanol prior to analysis by HPLC. A freshly prepared sample of each salt was used as the reference standard for external standard calibration analysis.

[1] = Solubility, 24-hour equilibration at room temperature; assay type: physicochemical; settings: for Solubility: approx. at 25° C.
Method in brief: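 20-50 mg sample in 1 ml solvent, equilibrated 24 h at room temperature. Dissolved amount measured gravimetrically or by UV-VIS, and pH of the clear solution recorded; salts may dissociate to free form, affecting solubility and pH.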

[2] = pH of saturated solution or 1% suspension in water; assay type: physicochemical; settings: In pH = 6.8 buffer
[3] = pH of saturated solution or 1% suspension in water; assay type: physicochemical; settings: room temperature
Experimental: pH Value: The pH at room temperature of a saturated solution or 1% suspension of the drug substance in water was recorded.

[4] = Intrinsic dissolution rate, rotation disk method; assay type: physicochemical; settings: for Intrinsic Dissolution Rate: 37° C., 200 r.p.m.
Method in brief: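 Pellets of drug substance dissolved by rotating disk at 200 r.p.m. into a 500 mL vessel at 37 °C. Dissolved drug monitored continuously by recirculating the medium through a UV cell.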

[5] = Equilibration in solvents and buffers: form conversion
[6] = Solution stability (HPLC); assay type: physicochemical
Experimental: as §1

[7] = Stability of mixtures with excipients; assay type: physicochemical
Experimental: as §1

[8] = Bulk stability, 2 weeks, 50° C.
[9] = Bulk stability, 2 weeks, 50° C./20% water
[10] = Bulk stability, 2 weeks, 50° C./75% r.h.
[11] = Light study, 1200 kLux (300-800 nm)
[12] = 2 mg/mL in methanol, 1 week at 50° C.
[13] = 2 mg/mL in water, 1 week at 50° C.
[14] = 2 mg/mL, 100 mM lactate buffer pH 3.5, 1 week at 50° C.
[15] = 2% in 0.5% HPMC 4000, 1 day at RT
[16] = 2% in 0.5% Klucel HF, 1 day at RT
[17] = 2% in 0.8% Tween 80, 1 day at RT
[18] = 5% solution, 1 day at RT (diluted 1:100 in pH 6.8 buffer)
[19] = Mixture 1: 50% PVP + 50% Crospovidone, 50° C./75% r.h., 2 weeks
[20] = Mixture 2: 50% Starch 1500 + 5% MCC 102, 50° C./75% r.h., 2 weeks
[21] = Mixture 3: 5% PVP + 5% Crospovidone + 10% Starch 1500 + 80% MCC 102, 50° C./75% r.h., 2 weeks
[22] = Mixture 4: 99% Lactose + 1% BHT/BHA, 50° C./75% r.h., 2 weeks
[23] = Mixture 5: 99% Mannitol + 1% BHT/BHA, 50° C./75% r.h., 2 weeks
[24] = Mixture 6: 50% Mannitol + 47% HPCLH21 + 1% BHT/BHA + 2% Magnesium Stearate, 50° C./75% r.h., 2 weeks
[25] = Mixture 7: 50% Cetyl Alcohol + 49% HPCLH21 + 1% Magnesium Stearate, 50° C./75% r.h., 2 weeks
[26] = Mixture 8: 100% PEG 3350, 50° C./75% r.h., 2 weeks

## Cc1[nH]c2ccccc2c1CCNCc1ccc(/C=C/C(=O)NO)cc1.Cl [HCl, hydrochloride salt of N-hydroxy-3-[4-[[[2-(2-methyl-1H-indol-3-yl)ethyl]amino]methyl]phenyl]-2E-2-propenamide]
Solid-state stability; 80° C.
  Bulk stability (XRPD): no change
Solid-state stability; 80° C./75% r.h.
  Bulk stability (XRPD): no change
Solid-state stability; [8]
  % DP (total degradation products): 0.44 % area
  assay: [99.38]
Solid-state stability; [9]
  % DP (total degradation products): 0.56 % area
  assay: [100.6]
Solid-state stability; [10]
  % DP (total degradation products): 0.56 % area
  assay: [99.04]
Solid-state stability; [11]
  % DP (total degradation products): 2.58 % area
  CL (appearance): C (C = medium discoloration)
  assay: [98.15]
[1]
  aqueous solubility: 2400 µg/mL
  solubility in methanol, in words: high
  solubility in other common / remaining organic solvents, in words: considerable
[1]; 0.1N HCl
  Solubility: 200 µg/mL
[1]; 2-Propanol
  Solubility: 800 µg/mL
[1]; Acetone
  Solubility: 4500 µg/mL
[1]; Ethanol
  Solubility: 2100 µg/mL
[1]; Ethyl acetate
  Solubility: 6500 µg/mL
[1]; Methanol
  Solubility: 16600 µg/mL
[1]; Propylene glycol
  Solubility: 13200 µg/mL
[1]; Water
  Solubility: 2400 µg/mL
[1]; estimated from mg/mL assuming solution density 1 g/mL
  approximate solubility in water as %: approximately 0.3%
[1]; pH = 6.8 buffer
  Solubility: 700 µg/mL
[2]
  pH of saturated solution: 5.67
[3]
  pH of saturated solution: 5.65
[4]
  intrinsic dissolution (rate), in words: good
[4]; HCl 0.1N
  Intrinsic Dissolution Rate: 0.13 mg min^−1 cm^−2
[4]; Water, free base pellet disintegrated, not true intrinsic rate
  Intrinsic Dissolution Rate: 0.68 mg min^−1 cm^−2
[5]; ambient temperature
  polymorphs upon equilibration: No additional polymorphs are detected
[5]; phosphate buffer (pH=6.8)
  conversion upon equilibration: converts to the free base
[6]; 2 mg/mL in 100 mM lactate buffer, pH 3.5
  pH of initial mixture: 3.52
[6]; [12]
  % DP (total degradation products): 0.38 % area
  assay: [99.25]
[6]; 2 mg/mL in water
  pH of initial mixture: 5.93
[6]; [13]
  % DP (total degradation products): 0.89 % area
  CL (appearance): A↓*
  assay: [97.53]
[6]; [14]
  % DP (total degradation products): 1.30 % area
  CL (appearance): A↓*
[6]; 2 mg/mL, 100 mM lactate buffer pH 3.5, 1 week at 50° C., external standard
  assay: [96.61]
[6]; 2% in 0.5% CMC, 1 day at RT
  % DP (total degradation products): 0.46 % area
  CL (appearance): A↓↓
  assay: [85.28]
[6]; [15]
  % DP (total degradation products): 0.43 % area
  assay: [100.0]
[6]; [16]
  % DP (total degradation products): 0.43 % area
  assay: [100.6]
[6]; [17]
  % DP (total degradation products): 0.43 % area
  assay: [97.83]
[6]; [18]
  % DP (total degradation products): 1.40 % area
  CL (appearance): A↓
  assay: [98.91
[6]; both in solution and in the solid state
  stability characteristics, in words: very good stability
[6]; unstressed baseline of the stability study
  Unstressed (% Area): 99.63% Area
[7]; [19]
  % DP (total degradation products): 0.6 % area
  % DS (drug substance): 99.4 % area
[7]; [20]
  % DP (total degradation products): 0.5 % area
  % DS (drug substance): 99.5 % area
[7]; [21]
  % DP (total degradation products): 0.6 % area
  % DS (drug substance): 99.4 % area
[7]; [22]
  % DP (total degradation products): 0.5 % area
  % DS (drug substance): 99.5 % area
[7]; [23]
  % DP (total degradation products): 0.5 % area
  % DS (drug substance): 99.5 % area
[7]; [24]
  % DP (total degradation products): 0.5 % area
  % DS (drug substance): 99.5 % area
[7]; [25]
  % DP (total degradation products): 0.5 % area
  % DS (drug substance): 99.5 % area
[7]; [26]
  % DP (total degradation products): 0.5 % area
  % DS (drug substance): 99.5 % area
[7]; Standard, freshly prepared
  % DP (total degradation products): 0.3 % area
  % DS (drug substance): 99.7 % area
[7]; after 2 weeks at 50° C./75% r.h.
  stability with all excipient mixtures tested, in words: very good stability
